Assay results taken from the supplement of paper PMC12420376.

Legend:
KURAMOCHI = assay: drug sensitivity score (DSS2) on cancer cell count; higher = more sensitive; extreme values may be limits of the assay; settings: 72 h
How it was run: (§1)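 Screen quality was checked by Z', and a drug sensitivity score was derived in Breeze from logistic fits of the cancer cell counts. These counts were obtained by imaging at 10× (4 fields) after fixing and immunostaining for CK8/18 with Hoechst. Before that, ovarian cancer cells, alone or in 1:1 direct co-culture with lung or skin fibroblasts, had been treated for 72 h on 384-well plates acoustically pre-spotted with 528 approved and investigational compounds at 5 concentrations.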

OVCAR8 = assay: as above; settings: 72 h
How it was run: as §1

[1] = co-cultured fibroblast: BJHTERT
[2] = co-cultured fibroblast: none (monoculture)

Compound | drug sensitivity score (KURAMOCHI; [1]) | drug sensitivity score (KURAMOCHI; co-cultured fibroblast: WI38) | drug sensitivity score (KURAMOCHI; [2]) | drug sensitivity score (OVCAR8; [1]) | drug sensitivity score (OVCAR8; co-cultured fibroblast: WI38) | drug sensitivity score (OVCAR8; [2])
CC(=O)O[C@H]1C(=O)[C@@]2(C)[C@H]([C@H](OC(=O)c3ccccc3)[C@]3(O)C[C@H](OC(=O)[C@H](O)[C@@H](NC(=O)c4ccccc4)c4ccccc4)C(C)=C1C3(C)C)[C@]1(OC(C)=O)CO[C@@H]1C[C@@H]2O [Paclitaxel] | 23.2 DSS | 24.5 DSS | 16.1 DSS | 29.6 DSS | 30.9 DSS | 24 DSS
O=C(CCCCCCC(=O)Nc1ccc([C@H]2O[C@@H](CSc3nc(-c4ccccc4)c(-c4ccccc4)o3)C[C@@H](c3ccc(CO)cc3)O2)cc1)NO [Tubacin] | 1.1 DSS | 6.7 DSS | 7 DSS | 5 DSS | 1.5 DSS | 6.2 DSS
CN(C)CCOc1ccc(/C(=C(/CCCl)c2ccccc2)c2ccccc2)cc1 [Toremifene] | 2.1 DSS | 0.8 DSS | 2.3 DSS | 3.2 DSS | 0 DSS | 3.5 DSS
CNC(=O)CN1CCC(Oc2cc3c(Nc4cccc(Cl)c4F)ncnc3cc2OC)CC1 [Sapitinib] | 2.3 DSS | 0 DSS | 0 DSS | 1.7 DSS | 1 DSS | 1.7 DSS
CN1CCN(C2CCN(C(=O)Nc3cc(Oc4ccc(NC(=O)C5(C(=O)Nc6ccc(F)cc6)CC5)c(F)c4)ccn3)CC2)CC1 [Golvatinib] | 0 DSS | 0 DSS | 0 DSS | 0 DSS | 0 DSS | 0 DSS
Oc1ccc2c(c1)CC[C@H](c1ccccc1)[C@@H]2c1ccc(OCCN2CCCC2)cc1 [Lasofoxifene] | 0 DSS | 0 DSS | 0 DSS | 0 DSS | 5.5 DSS | 0 DSS
CN1CCC(CNc2ccc3ncc(-c4cccc(OC(F)(F)F)c4)n3n2)CC1 [SGI-1776] | 7.9 DSS | 6.1 DSS | 7.6 DSS | 8.5 DSS | 4.5 DSS | 5.2 DSS
Cc1nc(Nc2ncc(C(=O)Nc3c(C)cccc3Cl)s2)cc(N2CCN(CCO)CC2)n1 [Dasatinib] | 18.4 DSS | 17 DSS | 20.4 DSS | 13.6 DSS | 21.9 DSS | 21.9 DSS
Cn1cnc2c(F)c(Nc3ccc(Br)cc3Cl)c(C(=O)NOCCO)cc21 [Selumetinib] | 15.5 DSS | 6.4 DSS | 20.1 DSS | 6.1 DSS | 0 DSS | 7.8 DSS
Nc1ncnc2c1c(COc1cccc(Cl)c1)nn2C1CCOCC1 | 0 DSS | 0 DSS | 0 DSS | 0 DSS | 0 DSS | 0 DSS
Cc1cc2c(F)c(Oc3ncnn4cc(OC[C@@H](C)O)c(C)c34)ccc2[nH]1 [Brivanib] | 0 DSS | 0 DSS | 0 DSS | 0 DSS | 0 DSS | 0 DSS
C=C(c1ccc(C(=O)O)cc1)c1cc2c(cc1C)C(C)(C)CCC2(C)C [Bexarotene] | 0.4 DSS | 0 DSS | 15.5 DSS | 0 DSS | 0 DSS | 0 DSS
Cn1cc(-c2cnn3c(N)c(Br)c([C@@H]4CCCNC4)nc23)cn1 [MK-8776] | 1.2 DSS | 0 DSS | 1.6 DSS | 7.8 DSS | 0.2 DSS | 0 DSS
Cc1sc2c(c1C)C(c1ccc(Cl)cc1)=N[C@@H](CC(=O)Nc1ccc(OCCOCCOCCOCCNc3cccc4c3C(=O)N(C3CCC(=O)NC3=O)C4=O)cc1)c1nnc(C)n1-2 (stereo partly drawn) [ARV-825] | 6.9 DSS | 7.9 DSS | 4.5 DSS | 19.6 DSS | 14.7 DSS | 18.8 DSS
C[C@]12CC[C@@H]3c4ccc(O)cc4C[C@@H](CCCCCCCCC[S+]([O-])CCCC(F)(F)C(F)(F)F)[C@H]3[C@@H]1CC[C@@H]2O (stereo partly drawn) [Fulvestrant] | 0 DSS | 0 DSS | 0 DSS | 0 DSS | 7.2 DSS | 0 DSS
COc1cc2ncnc(Nc3cccc(Cl)c3F)c2cc1OC(=O)N1CCN(C)C[C@H]1C [AZD3759] | 1.1 DSS | 0 DSS | 0 DSS | 0.8 DSS | 3.6 DSS | 0 DSS
Nc1ccccc1NC(=O)c1ccc(CNc2nccc(-c3cccnc3)n2)cc1 [Mocetinostat] | 10.4 DSS | 13.9 DSS | 13.7 DSS | 14 DSS | 19.3 DSS | 21.7 DSS
CO[C@@H]1[C@H](N(C)C(=O)c2ccccc2)C[C@H]2O[C@]1(C)n1c3ccccc3c3c4c(c5c6ccccc6n2c5c31)C(=O)NC4 [Midostaurin] | 16.2 DSS | 14.8 DSS | 11.6 DSS | 13.3 DSS | 16.5 DSS | 13 DSS
C[C@H](Nc1ncnc2[nH]cnc12)c1cc2ccc(F)cc2nc1-c1ccccn1 [AMG319] | 1.2 DSS | 0 DSS | 0 DSS | 0 DSS | 5.8 DSS | 0 DSS
CCN1CCN(Cc2ccc(Nc3ncc(F)c(-c4cc(F)c5nc(C)n(C(C)C)c5c4)n3)nc2)CC1 [Abemaciclib] | 5.5 DSS | 7.8 DSS | 0.2 DSS | 9.4 DSS | 0 DSS | 2.4 DSS
CCOC(=O)C1=CCCC[C@H]1S(=O)(=O)Nc1ccc(F)cc1Cl [Resatorvid] | 0 DSS | 0.2 DSS | 0 DSS | 0 DSS | 0 DSS | 0 DSS
Cc1cc(Nc2ncnc3ccc(NC4=NC(C)(C)CO4)cc23)ccc1Oc1ccn2ncnc2c1 [Tucatinib] | 2.9 DSS | 0 DSS | 2.5 DSS | 0 DSS | 0 DSS | 0 DSS
CN1CC[C@H](c2c(O)cc(O)c3c(=O)cc(-c4ccccc4Cl)oc23)[C@H](O)C1 [Alvocidib] | 19.3 DSS | 20.2 DSS | 20.9 DSS | 20.8 DSS | 21.6 DSS | 21 DSS
O[C@H](C[C@H]1c2c(F)cccc2-c2cncn21)[C@H]1CC[C@H](O)CC1 [GDC-0919] | 1.3 DSS | 0 DSS | 0 DSS | 0 DSS | 0 DSS | 1.6 DSS
N#Cc1ccnc(N2C(=O)CC[C@H]2C(=O)N(c2cncc(F)c2)[C@H](C(=O)NC2CC(F)(F)C2)c2ccccc2Cl)c1 [Ivosidenib] | 0 DSS | 0 DSS | 0 DSS | 2.1 DSS | 0.3 DSS | 0.2 DSS
c1cc(CN2CCCNCCNCCCNCC2)ccc1CN1CCCNCCNCCCNCC1 [Plerixafor] | 0 DSS | 0 DSS | 0.6 DSS | 0.5 DSS | 0 DSS | 0.3 DSS
Nc1nc(Cl)nc2c1ncn2[C@@H]1O[C@H](CO)[C@@H](O)[C@@H]1F [Clofarabine] | 13 DSS | 19.7 DSS | 10.7 DSS | 30.7 DSS | 28.7 DSS | 27.7 DSS

Compound | drug sensitivity score (KURAMOCHI; [1]) | drug sensitivity score (KURAMOCHI; co-cultured fibroblast: WI38) | drug sensitivity score (KURAMOCHI; [2]) | drug sensitivity score (OVCAR8; [1]) | drug sensitivity score (OVCAR8; co-cultured fibroblast: WI38) | drug sensitivity score (OVCAR8; [2])
C=CC(=O)Nc1cc(Nc2nccc(-c3cn(C)c4ccccc34)n2)c(OC)cc1N(C)CCN(C)C [Osimertinib] | 10.7 DSS | 6.8 DSS | 10.7 DSS | 6.8 DSS | 0.6 DSS | 3.7 DSS
Cc1cc(-c2nc(-c3ccc(OC(F)(F)F)cc3)no2)nn1Cc1ccnc(N2CCN(C3CC3)CC2)c1 [BAY 87-2243] | 7.6 DSS | 0 DSS | 4.3 DSS | 31.1 DSS | 0 DSS | 4.8 DSS
NS(=O)(=O)NCCNc1nonc1/C(=N/O)Nc1ccc(F)c(Br)c1 [Epacadostat] | 0 DSS | 0 DSS | 0 DSS | 0 DSS | 0 DSS | 0.6 DSS
C[C@@H]1CCN(C(=O)CC#N)C[C@@H]1N(C)c1ncnc2[nH]ccc12 [Tofacitinib] | 0 DSS | 0 DSS | 12.2 DSS | 0 DSS | 0 DSS | 0 DSS
O=C(c1ccc(OCCN2CCCCC2)cc1)c1c(-c2ccc(O)cc2)sc2cc(O)ccc12 [Raloxifene] | 4 DSS | 0 DSS | 0 DSS | 2.5 DSS | 0 DSS | 0 DSS
C=CCc1cccc(/C=N/NC(=O)CN2CCN(Cc3ccccc3)CC2)c1O [PAC-1] | 2.7 DSS | 3.3 DSS | 4.9 DSS | 7.4 DSS | 1.5 DSS | 4.9 DSS
Cc1c(Cn2c(C)nc3c(C(=O)O)cc(N4CCOCC4)cc32)cccc1C(F)(F)F | 5.5 DSS | 0.3 DSS | 6.9 DSS | 3.7 DSS | 0 DSS | 0 DSS
Cc1ccc(F)c(NC(=O)Nc2ccc(-c3cccc4[nH]nc(N)c34)cc2)c1 [Linifanib] | 0 DSS | 0 DSS | 0 DSS | 0 DSS | 0 DSS | 0.5 DSS
Cc1cc2c(C(=O)NC[C@H](C)c3ccccc3)c(O)c(O)cc2c(O)c1-c1c(C)cc2c(C(=O)NC[C@H](C)c3ccccc3)c(O)c(O)cc2c1O [Sabutoclax] | 3 DSS | 4.3 DSS | 23.7 DSS | 16.2 DSS | 14.2 DSS | 26.7 DSS
O=C(O)C1(C(=O)O)CCC1.[NH2-].[NH2-].[Pt+2] [Carboplatin] | 13.3 DSS | 18.1 DSS | 22.9 DSS | 9.4 DSS | 8.6 DSS | 12.3 DSS
COCC[n+]1c2c(n(Cc3cnccn3)c1C)C(=O)c1ccccc1C2=O [Sepantronium bromide] | 40.7 DSS | 30 DSS | 30.5 DSS | 37.1 DSS | 35.5 DSS | 29.9 DSS
Cc1nc(Nc2n[nH]c3c2CN(C(=O)N[C@H](CN(C)C)c2ccccc2)C3(C)C)c2sccc2n1 | 21 DSS | 24.6 DSS | 19.4 DSS | 20.8 DSS | 9.4 DSS | 15.5 DSS
CC1(C)OCCn2c1nc1c(N3CCOCC3)nc(-c3cnc(N)nc3)nc12 [GDC-0084] | 12.7 DSS | 11.5 DSS | 12.1 DSS | 8.3 DSS | 3.8 DSS | 11.9 DSS
NCCNc1ccc(NCCN)c2c1C(=O)c1ccncc1C2=O [Pixantrone] | 0 DSS | 0.1 DSS | 9.4 DSS | 1.7 DSS | 0 DSS | 0 DSS
CS(=O)(=O)c1ccc(C(=O)Nc2ccc(Cl)c(-c3ccccn3)c2)c(Cl)c1 [Vismodegib] | 0 DSS | 0 DSS | 0 DSS | 0 DSS | 6.8 DSS | 0 DSS
NC(=O)N1CCC(CC(=O)N2CCC([C@H]3c4ncc(Br)cc4CCc4cc(Cl)cc(Br)c43)CC2)CC1 [Lonafarnib] | 13 DSS | 13.9 DSS | 13.2 DSS | 14.5 DSS | 4.9 DSS | 10.3 DSS
C[C@@H](Oc1ccc2[nH]nc(/C=C/c3cnn(CCO)c3)c2c1)c1c(Cl)cncc1Cl | 5.7 DSS | 2.2 DSS | 6.7 DSS | 8.2 DSS | 9.2 DSS | 8 DSS
O=c1[nH]c(C2CCCN2)nc2c1oc1ccc(Cl)cc12 (stereo not drawn) | 2.2 DSS | 5.4 DSS | 4.1 DSS | 4.4 DSS | 1.8 DSS | 2.8 DSS
COc1cc(OC2CCN(C)CC2)ccc1Nc1ncc2c(n1)n(C1CCCC1)c(=O)n2C [AZ 3146] | 1.8 DSS | 3.2 DSS | 1.5 DSS | 8.3 DSS | 9.6 DSS | 4.3 DSS
Cc1cc(Nc2cc(N3CCN(C)CC3)nc(Sc3ccc(NC(=O)C4CC4)cc3)n2)n[nH]1 [Tozasertib] | 22 DSS | 19.4 DSS | 23.7 DSS | 20.1 DSS | 19.5 DSS | 20.9 DSS
C=CC(=O)N1CC/C(=C\c2ccc(F)c([N+](=O)[O-])c2)C(=O)/C(=C/c2ccc(F)c([N+](=O)[O-])c2)C1 [VLX1570] | 27.4 DSS | 24.7 DSS | 29 DSS | 24.8 DSS | 31.1 DSS | 31.7 DSS
O=C(CCCCCCNC(=O)c1cnc(N(c2ccccc2)c2ccccc2)nc1)NO [Rocilinostat] | 6.7 DSS | 6.9 DSS | 7.1 DSS | 10.4 DSS | 5.2 DSS | 18.6 DSS
Cc1[nH]c2ccccc2c1CCNCc1ccc(/C=C/C(=O)NO)cc1 [Panobinostat] | 14.8 DSS | 19.4 DSS | 21.8 DSS | 28.1 DSS | 20.1 DSS | 26.4 DSS
N#CCNC(=O)c1ccc(-c2ccnc(Nc3ccc(N4CCOCC4)cc3)n2)cc1 [Momelotinib] | 7.5 DSS | 10.1 DSS | 7.6 DSS | 11.3 DSS | 10.9 DSS | 10.1 DSS
CCN(CC)Cc1ccc2cc(COC(=O)Nc3ccc(C(=O)NO)cc3)ccc2c1 [Givinostat] | 8.6 DSS | 7.4 DSS | 6.1 DSS | 14.9 DSS | 8.5 DSS | 8.8 DSS
COCC1(CO)C(=O)C2CCN1CC2 (stereo not drawn) [APR-246] | 0 DSS | 0 DSS | 0 DSS | 0 DSS | 0 DSS | 0 DSS
